Source: patent US20250179061A1 (SIRONAX LTD., priority 2022, published 2025)

Tested on: HT-29 cells
Assay: HT-29 necroptosis cell viability assay (TNF-α/SMAC mimetic/zVAD-FMK, CellTiter-Glo)
Type: cell-based
Details: Homo sapiens, HT-29, HT-29 necroptosis cell viability assay; class symbols for IC50; read-out: Activity
Summary of the method: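 Necroptosis was triggered by TNF-α (10 ng/ml), SMAC mimetic (6 μM) and zVAD-FMK (10 μM) in serum-free medium during 20 h compound exposure (10 concentrations, threefold steps) of HT-29 cells. IC50 from duplicate dose-responses uses CellTiter-Glo ATP luminescence as viability read-out.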

SMILES	IC50 [nM]
Cc1nc(C=C2COC2)sc1Oc1ccc(-n2ncn(Cc3c(F)cccc3F)c2=O)cc1 [Example 547, 4-(2,6-difluorobenzyl)-2-(4-((4-methyl-2-(oxetan-3-ylidenemethyl)thiazol-5-yl)oxy)phenyl)-2,4-dihydro-3H-1,2,4-triazol-3-one]	< 100
O=c1n(Cc2c(F)cccc2F)cnn1-c1ccc(Oc2cc(C3=CCOCC3)ncc2F)c(F)c1 [Example 548, 4-(2,6-difluorobenzyl)-2-(4-((2-(3,6-dihydro-2H-pyran-4-yl)-5-fluoropyridin-4-yl)oxy)-3-fluorophenyl)-2,4-dihydro-3H-1,2,4-triazol-3-one]	< 100
Cc1nc(C2CCNC2)sc1Oc1ccc(-n2ncn(Cc3c(F)cccc3F)c2=O)cc1 (centres unmarked) [Example 549, 4-(2,6-difluorobenzyl)-2-(4-((4-methyl-2-(pyrrolidin-3-yl)thiazol-5-yl)oxy)phenyl)-2,4-dihydro-3H-1,2,4-triazol-3-one]	< 100
Cc1nc(C2CCOC2)sc1Oc1ccc(-n2ncn(Cc3c(F)cccc3F)c2=O)cc1 (centres unmarked) [Example 550, 4-(2,6-difluorobenzyl)-2-(4-((4-methyl-2-(tetrahydrofuran-3-yl)thiazol-5-yl)oxy)phenyl)-2,4-dihydro-3H-1,2,4-triazol-3-one]	< 100
Cc1nc(C2CCOCC2)sc1Oc1ccc(-n2ncn(Cc3c(F)cccc3F)c2=O)cc1 [Example 551, 4-(2,6-difluorobenzyl)-2-(4-((4-methyl-2-(tetrahydro-2H-pyran-4-yl)thiazol-5-yl)oxy)phenyl)-2,4-dihydro-3H-1,2,4-triazol-3-one]	< 100
Cc1nc(CC2COC2)sc1Oc1ccc(-n2ncn(Cc3c(F)cccc3F)c2=O)cc1 [Example 552, 4-(2,6-difluorobenzyl)-2-(4-((4-methyl-2-(oxetan-3-ylmethyl)thiazol-5-yl)oxy)phenyl)-2,4-dihydro-3H-1,2,4-triazol-3-one]	< 100
O=c1n(Cc2c(F)cccc2F)cnn1-c1ccc(Oc2cc(C3CCOCC3)ncc2F)c(F)c1 [Example 553, 4-(2,6-difluorobenzyl)-2-(3-fluoro-4-((5-fluoro-2-(tetrahydro-2H-pyran-4-yl)pyridin-4-yl)oxy)phenyl)-2,4-dihydro-3H-1,2,4-triazol-3-one]	100 to 1000
Cc1nc(C2CCN(C)C2)sc1Oc1ccc(-n2ncn(Cc3c(F)cccc3F)c2=O)cc1 (centres unmarked) [Example 554, 4-(2,6-difluorobenzyl)-2-(4-((4-methyl-2-(1-methylpyrrolidin-3-yl)thiazol-5-yl)oxy)phenyl)-2,4-dihydro-3H-1,2,4-triazol-3-one]	< 100
CC1(CN)CN(c2cc(Oc3ccc(-n4ncn(Cc5c(F)cccc5F)c4=O)cc3F)c(F)cn2)C1 [Example 555, 2-(4-((2-(3-(aminomethyl)-3-methylazetidin-1-yl)-5-fluoropyridin-4-yl)oxy)-3-fluorophenyl)-4-(2,6-difluorobenzyl)-2,4-dihydro-3H-1,2,4-triazol-3-one]	< 100
C[C@H](O)C1CN(c2cc(Oc3ccc(-n4ncn(Cc5c(F)cccc5F)c4=O)cc3F)c(F)cn2)C1 [Example 556, (S)-4-(2,6-difluorobenzyl)-2-(3-fluoro-4-((5-fluoro-2-(3-(1-hydroxyethyl)azetidin-1-yl)pyridin-4-yl)oxy)phenyl)-2,4-dihydro-3H-1,2,4-triazol-3-one]	< 100
CC1(CNC(=O)OC(C)(C)C)CN(c2cc(Oc3ccc(-n4ncn(Cc5c(F)cccc5F)c4=O)cc3F)c(F)cn2)C1 [Example 557, tert-butyl ((1-(4-(4-(4-(2,6-difluorobenzyl)-5-oxo-4,5-dihydro-1H-1,2,4-triazol-1-yl)-2-fluorophenoxy)-5-fluoropyridin-2-yl)-3-methylazetidin-3-yl)methyl)carbamate]	< 100
Cc1nc(C2CCCC2)sc1Oc1ccc(-n2ncn(Cc3c(F)cccc3F)c2=O)cc1 [Example 558, 2-(4-((2-cyclopentyl-4-methylthiazol-5-yl)oxy)phenyl)-4-(2,6-difluorobenzyl)-2,4-dihydro-3H-1,2,4-triazol-3-one]	< 100
Cc1nc(C(N)=O)sc1Oc1ccc(-n2ncn(Cc3c(F)cccc3F)c2=O)cc1F [Example 559, 5-(4-(4-(2,6-difluorobenzyl)-5-oxo-4,5-dihydro-1H-1,2,4-triazol-1-yl)-2-fluorophenoxy)-4-methylthiazole-2-carboxamide]	< 100
Cc1nc(C(N)=O)sc1Oc1ccc(-n2ncn(Cc3c(F)cccc3F)c2=O)cc1 [Example 560, 5-(4-(4-(2,6-difluorobenzyl)-5-oxo-4,5-dihydro-1H-1,2,4-triazol-1-yl)phenoxy)-4-methylthiazole-2-carboxamide]	< 100
Cc1nc(C#N)sc1Oc1ccc(-n2ncn(Cc3ccccc3F)c2=O)cc1F [Example 561, 5-(2-fluoro-4-(4-(2-fluorobenzyl)-5-oxo-4,5-dihydro-1H-1,2,4-triazol-1-yl)phenoxy)-4-methylthiazole-2-carbonitrile]	< 100
Cc1nc(C(N)=O)sc1Oc1ccc(-n2ncn(Cc3ccccc3F)c2=O)cc1F [Example 562, 5-(2-fluoro-4-(4-(2-fluorobenzyl)-5-oxo-4,5-dihydro-1H-1,2,4-triazol-1-yl)phenoxy)-4-methylthiazole-2-carboxamide]	< 100
Cc1ncsc1Oc1ccc(-n2ncn(Cc3cc(F)ccc3F)c2=O)cc1F [Example 563, 4-(2,5-difluorobenzyl)-2-(3-fluoro-4-((4-methylthiazol-5-yl)oxy)phenyl)-2,4-dihydro-3H-1,2,4-triazol-3-one]	< 100
Cc1nc(C(N)=O)sc1Oc1ccc(-n2ncn(Cc3cc(F)ccc3F)c2=O)cc1F [Example 564, 5-(4-(4-(2,5-difluorobenzyl)-5-oxo-4,5-dihydro-1H-1,2,4-triazol-1-yl)-2-fluorophenoxy)-4-methylthiazole-2-carboxamide]	< 100
Cc1nc(C(N)=O)sc1Oc1ccc(-n2ncn(Cc3cc(Cl)ccn3)c2=O)cc1F [Example 565]	100 to 1000
Cc1nc(C(N)=O)sc1Oc1ccc(-n2ncn(Cc3ccccc3C#N)c2=O)cc1F [Example 566, 5-(4-(4-(2-cyanobenzyl)-5-oxo-4,5-dihydro-1H-1,2,4-triazol-1-yl)-2-fluorophenoxy)-4-methylthiazole-2-carboxamide]	< 100
Cc1nc(C(N)=O)sc1Oc1ccc(-n2ncn(Cc3c(F)cccc3C#N)c2=O)cc1F [Example 567, 5-(4-(4-(2-cyano-6-fluorobenzyl)-5-oxo-4,5-dihydro-1H-1,2,4-triazol-1-yl)-2-fluorophenoxy)-4-methylthiazole-2-carboxamide]	< 100
Cc1cnc(N2CC(C)(C(N)=O)C2)cc1Oc1ccc(-n2ncn(Cc3c(F)cccc3F)c2=O)cc1Cl [Example 568, 1-(4-(2-chloro-4-(4-(2,6-difluorobenzyl)-5-oxo-4,5-dihydro-1H-1,2,4-triazol-1-yl)phenoxy)-5-methylpyridin-2-yl)-3-methylazetidine-3-carboxamide]	< 100
Cc1nc(C#N)sc1Oc1ccc(-n2ncn(Cc3c(F)cccc3F)c2=O)cc1F [Example 569, 5-(4-(4-(2,6-difluorobenzyl)-5-oxo-4,5-dihydro-1H-1,2,4-triazol-1-yl)-2-fluorophenoxy)-4-methylthiazole-2-carbonitrile]	< 100
